Laboratory results: patent publication US20130064899A1, “SYNERGISTIC BIOCIDE COMPOSITION CONTAINING AT LEAST THREE BIOCIDE COMPONENTS” (THOR GMBH, priority 2010, published 2013)
Marks after values point to notes of the source that are not given here.

Tests used:
[1] = tested on: Candida lipolytica (DSM 3286); test: Minimum inhibitory concentration and synergy index in Sabouraud maltose broth, Candida lipolytica; format: cell-based; conditions: 72 hours at 25° C.; for SI (synergy index = Qa/QA + Qb/QB): below 1 = synergism
Protocol: (§1) A test was made of the synergism of a combination of BIT, zinc pyrithione or sodium pyrithione, and silver. The test organisms used were the yeasts Candida albicans (DSM 1386) and Candida lipolytica (DSM 3286). For the test, mixtures with different compositions of BIT, zinc pyrithione or sodium pyrithione, and silver were prepared and were tested for their activity on Candida albicans and Candida lipolytica.
(§2) The individual actives or actives mixtures were mixed in serial concentration series with nutrient broth (Sabouraud maltose broth) and inoculated with the respective test organisms. The cell density in the overall batch was in each case 10^6 microbes per ml.
(§3) The incubation time was 72 hours at 25° C. on a shaker at 120 rpm. This was followed by inspection for growth of Candida albicans and Candida lipolytica.
(§4) This method was used to determine the minimum inhibitory concentrations (MICS) of the combination Ag+BIT and ZnPy or NaPy, with Ag and BIT always being present in a 1:20 ratio. The MIC is the concentration at which there is no longer any hazing of the nutrient solution.
(§5) The synergism which occurred was represented numerically by calculation of the synergy index (SI). The calculation was made according to the common method of F. C. Kull et al., Applied Microbiology, vol. 9 (1961), p. 538. The SI variant was given by the following formula:
Synergy index SI=Qa/QA+Qb/QB
When this formula is applied to the BIT+pyrithione+silver biocide system tested here, the variables in the formula have the following definition: • Qa=Concentration of Ag+BIT in the Ag+BIT and ZnPy mixture • QA=Concentration of Ag+BIT as sole biocide • Qb=Concentration of ZnPy in the Ag+BIT and ZnPy mixture • QB=Concentration of ZnPy as sole biocide
If the synergy index has a value of more than 1, this means that antagonism is present. If the synergy index adopts a value of 1, this means that the two biocides have an additive effect.

[2] = tested on: Candida albicans (DSM 1386); test: Minimum inhibitory concentration and synergy index in Sabouraud maltose broth, Candida albicans; format: cell-based; conditions: 72 hours at 25° C.
Protocol: as §1, §2, §3, §4, §5
Synergy index SI=Qa/QA+Qb/QB […]

[3] = concentration of ZnPy in the Ag + BIT and ZnPy mixture, *2 = QB, ZnPy as sole biocide

Compound	SI (synergy index = Qa/QA + Qb/QB) ([1]; ZnPy series)	MIC Qb (ZnPy) [1, 3]	SI (synergy index = Qa/QA + Qb/QB) ([2]; below 1 = synergism)	MIC Qb (ZnPy) [2, 3]	SI (synergy index = Qa/QA + Qb/QB) ([1]; NaPy series)	MIC Qb (NaPy) ([1]; concentration of NaPy in the Ag + BIT and NaPy mixture, *2 = QB, NaPy as sole biocide)
zinc pyrithione [ZnPy]	1.00	7.5*^2 ppm	1.00	7.5*^2 ppm	–	–
[Na+].[O-][n+]1ccccc1[S-] [NaPy, sodium pyrithione]	–	–	–	–	1.00	30*^2 ppm
